Measurements as given in ChEMBL document CHEMBL5727360, “BCL-2 inhibitors” (2019).

target: Apoptosis regulator Bcl-2 (Homo sapiens, UniProt P10415); assay: Bcl-2 Competition Binding (Fluorescence Polarization) Assay: The fluorescence-labeled 23 amino acid peptide BH3 was purchased from CalBiochem ([…], SEQ ID NO: 1). An unbound Fluorescein labeled BH3 peptide emits random light with respect to the plane of polarization plane of excited light, resulting in a lower polarization degree (mP) value. When the peptide is bound to Bcl-2, the complex tumble slower and the emitted light can have a higher level of polarization, resulting in a higher mP value. This binding assay was performed in 96-well plate and with each assay contained 15 and 30 nM of labeled peptide and purified Bcl-2 protein (purchased from R&D Systems, Inc). The assay buffer contained 20 mM Hepes (pH 7.0), 50 mM KCl, 5 mM MgCl2, 20 mM Na2MoO4, 0.1 mg/ml Bovine Gamma Globulin and 0.01% NP40. Compounds were diluted in DMSO and added to the final assay with concentration range from 20 uM to 2 nM. The polarization degree (mP) value was determined by BioTek Synergy II with background subtraction after 3 hours of incubation at room temperature. IC50 was calculated using Prism software with sigmoidal dose-response curve fitting. ABT-737 was used as reference compound. Such assays, carried out with a range of doses of test compounds, allow the determination of an approximate IC50 value.
Sequence (P10415 whole entry): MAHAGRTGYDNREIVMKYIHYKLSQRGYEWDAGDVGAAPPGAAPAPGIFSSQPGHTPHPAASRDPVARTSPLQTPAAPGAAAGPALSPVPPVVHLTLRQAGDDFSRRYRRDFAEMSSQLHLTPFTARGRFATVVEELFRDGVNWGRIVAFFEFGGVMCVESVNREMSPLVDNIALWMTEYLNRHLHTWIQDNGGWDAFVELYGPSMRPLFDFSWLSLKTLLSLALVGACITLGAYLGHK

IC50, < 10 nM:
CN1CCC(F)(COc2ccc(S(=O)(=O)NC(=O)c3ccc(N4CCN(CC5=C(c6ccc(Cl)cc6)CC(C)(C)CC5)CC4)cc3-n3ncc4nc5[nH]ccc5cc43)cc2[N+](=O)[O-])CC1
CC1(C)CCC(CN2CCN(c3ccc(C(=O)NS(=O)(=O)c4ccc(NCCCN5CCOCC5)c([N+](=O)[O-])c4)c(-n4ncc5nc6[nH]ccc6cc54)c3)CC2)=C(c2ccc(Cl)cc2)C1
CC1(C)CCC(CN2CCN(c3ccc(C(=O)NS(=O)(=O)c4ccc(NC5CCN(C6CCOCC6)CC5)c([N+](=O)[O-])c4)c(-n4ncc5nc6[nH]ccc6cc54)c3)CC2)=C(c2ccc(Cl)cc2)C1
